Assay results: patent US6737418B2, “Aryl substituted pyrazoles, imidazoles, oxazoles, thiazoles and pyrroles, and the use thereof” (Euro-Celtique S.A., priority 1999, dated 2004)

What was measured:
[1] = biological target: T1, hSkM1 isoform of Na+ channels (Homo sapiens, UniProt P35499); experiment: Electrophysiological Assay 1: whole-cell patch-clamp of Na+ currents in HEK-293 cells expressing hSkM1; format: cell-based; settings: for Ki: HEK-293 cells stably expressing hSkM1, concentration that produces half maximal inhibition
T1 construct: expressed in transfected cells
Protocol: Cell preparation: HEK-293 cells stably expressing the hSkM1 isoform of Na^+ channels (generous gift from Dr. A. L. George, Vanderbilt University Medical School) were cultured using standard techniques, as described previously (Verdoorn, T. A, et al., Neuron 4:919-928 (1990)). For electrophysiology, cells were plated onto 35 mm Petri dishes (pre-coated with poly-D-lysine) at a density of 1:40 on the day of re-seeding from confluent cultures. Our experience has been that cells are suitable for recordings for 2-3 days after plating.
Patch-clamp recordings of voltage-sensitive Na^+ currents: Whole-cell voltage-clamp recordings were made using conventional patch-clamp techniques (Hamill et al., Pfluegers Arch. 391:85-100 (1981)) with an Axopatch 200A amplifier (Axon Instruments, Foster City, Calif.). […] The recording chamber was continuously superfused with the external solution (150 mM NaCl, 5.4 mM KCl, 1.8 mM CaCl2, 1 mM MgCl2, 10 mM HEPES, 10 mM glucose, pH 7.4 (NaOH)) at a speed of about 1 mL/min. Recording pipettes were pulled from thick-walled capillaries (WPI, Sarasota, Fla.) and fire-polished. The pipette resistances ranged from 1 to 3 MΩ when the pipettes were filled with internal solution containing (in mM): 110 CsF, 10 NaCl, 5 MgCl2, 11 EGTA, 10 HEPES, pH adjusted to 7.4 with CsOH. Osmolality was set with a difference of 15-20 mmol/kg between external and internal solutions (lower inside the cell). Drugs and intervening wash-outs were applied through a linear array of flow pipes (Drummond Microcaps, 2 μL, 64-mm length). Compounds are dissolved in dimethylsulfoxide (DMSO) to make a 30 mM stock solution, which was subsequently diluted into the external solution to give final concentrations of 0.1-100 μM. At the highest (1%) concentration, DMSO inhibited the size of Na^+ current only slightly. Currents were recorded at room temperature (22-25° C.), filtered at 5 kHz with an active 8-pole Bessel filter (Frequency Devices, Haverhill, Mass.), digitized at 10-50 μs intervals, and stored using Digidata 1200 analog/digital interface with Pclamp6/Clampex software (Axon Instruments). Series resistance was cancelled typically by ˜75% when necessary. The inhibitory potency of drugs was assessed by measuring reductions in the peak amplitude of Na^+ currents induced by increasing concentrations of compounds tested. Na^+ currents were elicited by stepping membrane voltage from holding potentials over the range −100 mV to −50 mV, to a pulse potential of −10 mV. The test pulse duration was 5-10 msec, repeated at a frequency≦1 Hz. Concentration-inhibition curves were fitted with equation 1:
I/Icontrol=1/(1+([compound]/IC50)) Eq. 1
where Icontrol is the maximal Na^+ current in the absence of antagonist, [compound] is the drug concentration, and IC50 is the concentration of compound that produces half maximal inhibition.
The apparent antagonist dissociation constant (Kd) of this compound for inactivated sodium channels is ˜8 nM.
The Ki (the concentration of a compound that produces half maximal inhibition) value for 3-[4-(4-fluorophenoxy)phenyl]-1H-pyrazole-1-carboxamide and other tested compounds are presented in Table 2.

[2] = system: maximal electroshock-induced seizures (MES); experiment: Maximum electroshock seizure test (MES), oral administration to mice; format: in vivo; settings: 30 minutes before the test, dose protecting 50% of animals; for ED50: Mus musculus, po
From the text: The compounds of the present invention may be tested for in vivo anticonvulsant activity after i.v., p.o. or i.p. injection using a number of anticonvulsant tests in mice, including the maximum electroshock seizure test (MES). Maximum electroshock seizures were induced in male NSA mice weighing between 15-20 g and male Sprague-Dawley rats weighing between 200-225 g by application of current (50 mA, 60 pulses/sec, 0.8 msec pulse width, 1 sec duration, D.C., mice; 99 mA, 125 pulses/sec, 0.8 msec pulse width, 2 sec duration, D.C., rats) using a Ugo Basile ECT device (Model 7801). Mice were restrained by gripping the loose skin on their dorsal surface and saline-coated corneal electrodes were held lightly against the two corneae. Rats were allowed free movement on the bench top and ear-clip electrodes were used. […] A tonic seizure was defined as a hindlimb extension in excess of 90 degrees from the plane of the body. Results were treated in a quantal manner.
The ability of 3-[4-(2,4-difluorophenoxy)phenyl]-1H-pyrazole-1-carboxamide to block maximal electroshock-induced seizures (MES) was determined as described earlier.
3-[4-(2,4-Difluorophenoxy)phenyl]-1H-pyrazole-1-carboxamide was administered p.o. to mice 30 minutes before the test procedure.
The following compounds in Table 1 were tested in MES as described for 3-[4-(2,4-difluorophenoxy)phenyl]-1H-pyrazole-1-carboxamide: […]

[3] = biological target: rBIIA isoform of Na+ channels (Rattus norvegicus, UniProt P04775); experiment: Electrophysiological Assay 2: whole-cell patch-clamp of Na+ currents in HEK-293 cells expressing rBIIA; format: cell-based; settings: for Ki: HEK-293 cells stably expressing rBIIA, concentration that produces half maximal inhibition
Protocol: Cell preparation: HEK-293 (NaIIA-B2) cell line stably expressing the rBIIA isoform of Na^+ channels was established in-house. The cells were cultured using standard techniques, as described previously (Verdoorn, T. A, et al., Neuron 4:919-928 (1990)). For electrophysiology, cells were plated onto poly-D-lysine pre-coated Cellware 35 mm Petri dishes (BIOCOAT, Becton Dickinson) at a density of ˜10^4 cells/dish on the day of re-seeding from confluent cultures. Our experience has been that cells are suitable for recordings for 2-3 days after plating.
Patch-clamp recordings of voltage-sensitive Na^+ currents. Whole-cell voltage-clamp recordings were made using conventional patch-clamp techniques (Hamill et al., Pfluegers Arch. 391:85-100 (1981)) with an Axopatch 200A amplifier (Axon Instruments, Foster City, Calif.). The recording chamber was continuously superfused with the external solution (150 mM NaCl, 5.4 mM KCl, 1.8 mM CaCl2, 1 mM MgCl2, 10 mM HEPES, 10 mM glucose, pH7.4 adjusted with NaOH, osmolality ˜320 mmol/kg) at a speed of about 1 mL/min. Recording pipettes were pulled from the thick-walled capillaries (WPI, Sarasota, Fla.) and fire-polished. The pipette resistances ranged from 1 to 3 MΩ when the pipettes were filled with internal solution containing (in mM): 130 CsF, 20 NaCl, 2 MgCl2, 10 EGTA, 10 HEPES, pH adjusted to 7.4 with CsOH, osmolality ˜310 mmol/kg. Drugs and intervening wash-outs were applied through a linear array of flow pipes (Drummond Microcaps, 2 μL, 64-mm length). Compounds are dissolved in dimethylsulfoxide (DMSO) to make a 30 mM stock solution, which was subsequently diluted into the external solution to give final concentrations of 0.1-100 μM. At the highest (1%) concentration, DMSO inhibited the size of Na^+ current only slightly. Currents were recorded at room temperature (22-25° C.), filtered at 3 kHz with an active 8-pole Bessel filter (Frequency Devices, Haverhill, Mass.), digitized at 10-50 μs intervals, and stored using Digidata 1200 analog/digital interface with Pclamp6/Clampex software (Axon Instruments). Series resistance was cancelled typically by ˜75% when necessary.
The following voltage pulse protocols were used to assess the potency and kinetics of inhibition of the Na^+ channels by the compounds (FIG. 1). [drawing 33]
FIG. 1. Voltage pulse protocols. A. IV-curves. C. Steady-state inactivation. B. Repriming kinetics. D. Time course of binding.
Current-voltage relationship (IV-curve), protocol A, was used to report the voltage at which the maximal inward Na^+ current is achieved. This voltage was used throughout the experiment as testing voltage, Vt. The steady-state inactivation (or, availability) curve, protocol C, was used to get the voltage at which almost complete (≧95%) inactivation of Na^+ channels occurs; it served as voltage for conditioning prepulse, Vc, throughout the experiment. Protocol B reports how fast the channels recover from inactivation at hyperpolarized voltages. This permitted us to set up the duration of the hyperpolarization gap which is used in measurement of the kinetics of binding of compounds to inactivated Na^+ channels (protocol D). Channel repriming under control conditions was fast (≧90% recovery during first 5-10 ms). If a drug substantially retards the repriming process then it becomes possible (protocol D) to accurately measure the kinetics of binding of the inhibitor to inactivated channels as well as the steady-state affinity (k+ and Ki). To estimate k+ values the reduction in peak currents in successive trials with varying pre-pulse duration was plotted as a function of pre-pulse duration and the time constant (τ) measured by mono-exponential fit. A plot of 1/τ as a function of antagonist concentration then allowed calculating of the macroscopic binding rates of the antagonists. To determine Ki values the partial inhibition curves measured by fractional responses in steady-state were fitted with the logistic equation: […]

T1 sequence (P35499 whole entry, canonical isoform): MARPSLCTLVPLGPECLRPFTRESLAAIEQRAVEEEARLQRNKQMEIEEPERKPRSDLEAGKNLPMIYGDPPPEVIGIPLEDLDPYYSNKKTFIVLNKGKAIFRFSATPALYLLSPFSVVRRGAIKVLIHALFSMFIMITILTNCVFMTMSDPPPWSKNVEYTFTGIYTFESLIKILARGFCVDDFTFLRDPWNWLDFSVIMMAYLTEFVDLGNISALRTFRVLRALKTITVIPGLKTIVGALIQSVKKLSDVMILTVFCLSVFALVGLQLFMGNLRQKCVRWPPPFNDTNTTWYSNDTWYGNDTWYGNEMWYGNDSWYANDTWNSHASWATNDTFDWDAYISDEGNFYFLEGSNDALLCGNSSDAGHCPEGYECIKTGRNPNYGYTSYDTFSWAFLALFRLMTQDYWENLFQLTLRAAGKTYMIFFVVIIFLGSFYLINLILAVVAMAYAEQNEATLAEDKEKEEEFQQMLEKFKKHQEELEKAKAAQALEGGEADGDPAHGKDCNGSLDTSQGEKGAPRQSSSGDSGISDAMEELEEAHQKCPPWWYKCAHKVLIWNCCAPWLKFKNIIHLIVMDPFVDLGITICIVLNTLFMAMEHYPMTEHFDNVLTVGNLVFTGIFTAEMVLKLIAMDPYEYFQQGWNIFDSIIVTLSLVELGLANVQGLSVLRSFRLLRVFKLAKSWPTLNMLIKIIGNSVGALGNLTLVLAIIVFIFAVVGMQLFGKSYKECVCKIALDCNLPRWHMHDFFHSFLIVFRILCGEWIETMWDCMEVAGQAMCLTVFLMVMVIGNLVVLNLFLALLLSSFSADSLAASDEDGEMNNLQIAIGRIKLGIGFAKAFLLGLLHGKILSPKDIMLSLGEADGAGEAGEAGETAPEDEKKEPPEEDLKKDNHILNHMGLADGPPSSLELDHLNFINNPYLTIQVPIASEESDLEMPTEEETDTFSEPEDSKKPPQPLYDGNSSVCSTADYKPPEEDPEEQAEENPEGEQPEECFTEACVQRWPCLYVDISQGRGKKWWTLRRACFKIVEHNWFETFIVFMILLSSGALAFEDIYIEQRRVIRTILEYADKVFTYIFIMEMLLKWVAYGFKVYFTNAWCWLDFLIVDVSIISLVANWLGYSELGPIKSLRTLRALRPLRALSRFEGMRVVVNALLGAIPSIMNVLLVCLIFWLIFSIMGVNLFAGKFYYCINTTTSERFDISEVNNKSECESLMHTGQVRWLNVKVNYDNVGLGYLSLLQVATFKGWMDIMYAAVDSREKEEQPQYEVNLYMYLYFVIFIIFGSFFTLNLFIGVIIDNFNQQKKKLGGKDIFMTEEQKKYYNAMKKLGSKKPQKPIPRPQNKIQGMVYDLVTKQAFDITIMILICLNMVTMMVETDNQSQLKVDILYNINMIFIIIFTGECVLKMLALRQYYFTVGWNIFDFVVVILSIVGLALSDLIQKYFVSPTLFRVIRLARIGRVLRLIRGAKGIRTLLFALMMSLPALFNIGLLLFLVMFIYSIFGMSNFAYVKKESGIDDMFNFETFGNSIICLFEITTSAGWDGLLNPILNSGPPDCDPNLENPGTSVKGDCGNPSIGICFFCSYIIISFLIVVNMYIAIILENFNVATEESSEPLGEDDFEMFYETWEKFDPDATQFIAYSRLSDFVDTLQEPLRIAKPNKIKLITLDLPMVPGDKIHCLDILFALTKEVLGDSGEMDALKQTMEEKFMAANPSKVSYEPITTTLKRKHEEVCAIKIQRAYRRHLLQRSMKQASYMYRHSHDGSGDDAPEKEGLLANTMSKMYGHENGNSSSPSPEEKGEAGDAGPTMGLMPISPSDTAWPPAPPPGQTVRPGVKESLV

1-[3-[4-(4-Nitrophenoxy)phenyl]-1H-pyrazolyl]ethanone
Ki [1]: 9 nM

CS(=O)(=O)NCCn1nccc1-c1ccc(Oc2ccc(F)cc2)cc1 [1-[2-(Methanesulfonylamino)ethyl]-5-[4-(4-fluorophenoxy)phenyl]-1H-pyrazole]
ED50 [2]: 7.5 mg/kg

CC(=O)N(C)n1nccc1-c1ccc(Oc2ccc(F)cc2)cc1 [2-(N-methylacetamido)-3-[4-(4-fluorophenoxy)phenyl]-2H-pyrazole]
ED50 [2]: 2.9 mg/kg

Fc1ccc(Oc2ccc(-c3ncc[nH]3)cc2)cc1 [2-[4-(4-Fluorophenoxy)phenyl]-1H-imidazole]
Ki [3]: 1100 nM

NC(=O)c1coc(-c2ccc(Oc3ccc(F)cc3)cc2)n1 [2-[4-(4-Fluorophenoxy)phenyl]oxazole-4-carboxamide]
Ki [3]: 1310 nM

CN1CCN(C(=O)Cn2nccc2-c2ccc(Oc3ccc(F)cc3)cc2)CC1 [2-{5-[4-(4-Fluorophenoxy)phenyl]-pyrazol-1-yl}-1-(4-methyl)piperazine-1-yl-ethanone]
MES p.o. ED50 [2]: 10 mg/kg

NC(=O)n1ccc(-c2ccc(Oc3ccccc3)cc2)n1 [3-(4-phenoxyphenyl)-1H-pyrazole-1-carboxamide]
Ki [1]: 15 nM

NC(=O)n1ccc(-c2ccc(Oc3ccc(F)cc3)c(F)c2)n1 [3-[3-fluoro-4-(4-fluorophenoxy)phenyl]-1H-pyrazole-1-carboxamide]
ED50 [2]: 4.5 mg/kg

NC(=O)n1ccc(-c2ccc(Oc3ccc(F)cc3F)cc2)n1 [3-[4-(2,4-Difluorophenoxy)phenyl]-1H-pyrazole-1-carboxamide]
Ki [1]: 10 nM | ED50 [2]: 3.5 mg/kg

NC(=O)n1ccc(-c2ccc(Oc3ccc(F)cc3)cc2)n1 [3-[4-(4-Fluorophenoxy)phenyl]-1H-pyrazole-1-carboxamide]
Ki [1]: 8 nM | inhibition of voltage-gated sodium currents ([1]; HEK-293 cells stably expressing hSkM1 sodium channels): dose-dependent inhibition | Kd ([1]; HEK-293 cells stably expressing hSkM1 sodium channels, read-out: apparent antagonist dissociation constant (Kd) for inactivated sodium channels): ~8 nM | potency towards Na+ channels in their resting states ([1]; hSkM1, blocking effect highly sensitive to the holding voltage): weak potency | ED50 [2]: 7 mg/kg

CN(C)C(=O)n1ccc(-c2ccc(Oc3ccc(F)cc3)cc2)n1 [3-[4-(4-Fluorophenoxy)phenyl]-1H-pyrazole-1-carboxylic Acid Dimethylamide]
ED50 [2]: 8.6 mg/kg

Fc1ccc(Oc2ccc(-c3cc[nH]n3)cc2)cc1 [3-[4-(4-Fluorophenoxy)phenyl]-1H-pyrazole]
ED50 [2]: 8 mg/kg

NC(=O)n1ccc(-c2ccc(Oc3ccc([N+](=O)[O-])cc3)cc2)n1 [3-[4-(4-Nitrophenoxy)phenyl]-1H-pyrazole-1-carboxamide]
Ki [1]: 11 nM | ED50 [2]: 2 mg/kg

Cc1nc(-c2ccc(Oc3ccc(F)cc3F)cc2)c[nH]1 [4-[4-(2,4-Difluorophenoxy)phenyl]-2-methyl]-1H-imidazole]
MES p.o. ED50 [2]: 7.5 mg/kg

Cl.Fc1ccc(Oc2ccc(-c3c[nH]cn3)cc2F)cc1 [4-[4-(4-Fluorophenoxy)-3-fluorophenyl]-1H-imidazole, hydrochloride salt]
Ki [3]: 250 nM | inhibition of voltage-gated sodium currents ([3]; HEK-293 cells stably expressing the rBIIA isoform of Na+ channels): dose-dependent inhibition | Kd ([3]; HEK-293 cells stably expressing the rBIIA isoform of Na+ channels, read-out: apparent antagonist dissociation constant (Kd) for inactivated sodium channels): 250 nM | potency towards Na+ channels in their resting states ([3]; rBIIA, blocking effect highly sensitive to the holding voltage): weak potency

Fc1ccc(Oc2ccc(-c3c[nH]cn3)cc2F)cc1 [4-[4-(4-Fluorophenoxy)-3-fluorophenyl]-1H-imidazole]
ED50 [2]: 3.2 mg/kg

NC(=O)c1nc(-c2ccc(Oc3ccc(F)cc3)c(F)c2)cs1 [4-[4-(4-Fluorophenoxy)-3-fluorophenyl]-thiazole-2-carboxamide]
Ki [1]: 20 nM

Fc1ccc(Oc2ccc(-c3c[nH]cn3)cc2)cc1 [4-[4-(4-Fluorophenoxy)phenyl]-1H-imidazole]
ED50 [2]: 4.2 mg/kg

NC(=O)c1ccc(-c2ccc(Oc3ccc(F)cc3)cc2)[nH]1 [5-[4-(4-Fluorophenoxy)phenyl]-pyrrole-2-carboxamide]
ED50 [2]: 10 mg/kg

O=[N+]([O-])c1ccc(Oc2ccc(-c3cc[nH]n3)cc2)cc1 [5-[4-(4-nitrophenoxy)phenyl]-1H-pyrazole, 3-[4-(4-nitrophenoxy)phenyl]-1H-pyrazole]
Ki [1]: 110 nM

COC(=O)c1ccc(-c2ccc(Oc3ccc(F)cc3)cc2)[nH]1 [Methyl 5-[4-(4-Fluorophenoxy)phenyl]pyrrole-2-carboxylate]
ED50 [2]: 6 mg/kg
